Reference: ChEMBL document CHEMBL1155340, “Discovery of a novel azepine series of potent and selective 5-HT2C agonists as potential treatments for urinary incontinence” (Bioorg Med Chem Lett, 2009)

Experiments:
physchem = conditions: buffer, pH 7.4
Description: Lipophilicity, log D at pH 7.4

[1] = target: T1, 5-hydroxytryptamine receptor 2B (Homo sapiens, UniProt P41595); experiment: Agonist activity at human recombinant 5HT2B receptor assessed as induction of calcium mobilization by FLIPR assay relative to 5-HT; format: functional
[2] = target: T2, 5-hydroxytryptamine receptor 2C (Homo sapiens) (UniProt P28335); experiment: Agonist activity at human recombinant 5HT2C receptor expressed in CHO K1 cells assessed as induction of calcium mobilization by FLIPR assay relative to 5-HT; format: functional, cell-based
T2 sequence (whole entry): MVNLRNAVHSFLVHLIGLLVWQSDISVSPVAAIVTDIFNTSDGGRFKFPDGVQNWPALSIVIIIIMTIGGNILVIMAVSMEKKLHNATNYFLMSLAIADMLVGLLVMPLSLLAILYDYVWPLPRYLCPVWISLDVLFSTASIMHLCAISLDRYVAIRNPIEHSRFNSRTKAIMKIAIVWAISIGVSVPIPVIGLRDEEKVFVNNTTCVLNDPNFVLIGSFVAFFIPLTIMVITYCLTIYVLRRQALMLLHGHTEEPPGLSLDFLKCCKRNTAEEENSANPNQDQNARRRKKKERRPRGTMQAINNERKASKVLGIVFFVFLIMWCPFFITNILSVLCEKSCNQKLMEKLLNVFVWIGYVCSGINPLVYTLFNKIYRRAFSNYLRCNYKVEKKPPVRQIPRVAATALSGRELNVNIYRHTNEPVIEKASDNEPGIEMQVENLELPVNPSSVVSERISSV

in vitro = conditions: human, liver microsomes
Description: (§1) Metabolic stability in human liver microsomes assessed per mg of protein

[3] = target: T3, 5-hydroxytryptamine receptor 2C (Homo sapiens, UniProt P28335)
T3 sequence (P28335 whole entry): T2 sequence (whole entry)

[4] = target: T1, 5-hydroxytryptamine receptor 2B
[5] = target: Muscarinic acetylcholine receptor M3 (Homo sapiens, UniProt P20309); experiment: Inhibition of muscarinic receptor 3
Sequence of Muscarinic acetylcholine receptor M3 (P20309 whole entry): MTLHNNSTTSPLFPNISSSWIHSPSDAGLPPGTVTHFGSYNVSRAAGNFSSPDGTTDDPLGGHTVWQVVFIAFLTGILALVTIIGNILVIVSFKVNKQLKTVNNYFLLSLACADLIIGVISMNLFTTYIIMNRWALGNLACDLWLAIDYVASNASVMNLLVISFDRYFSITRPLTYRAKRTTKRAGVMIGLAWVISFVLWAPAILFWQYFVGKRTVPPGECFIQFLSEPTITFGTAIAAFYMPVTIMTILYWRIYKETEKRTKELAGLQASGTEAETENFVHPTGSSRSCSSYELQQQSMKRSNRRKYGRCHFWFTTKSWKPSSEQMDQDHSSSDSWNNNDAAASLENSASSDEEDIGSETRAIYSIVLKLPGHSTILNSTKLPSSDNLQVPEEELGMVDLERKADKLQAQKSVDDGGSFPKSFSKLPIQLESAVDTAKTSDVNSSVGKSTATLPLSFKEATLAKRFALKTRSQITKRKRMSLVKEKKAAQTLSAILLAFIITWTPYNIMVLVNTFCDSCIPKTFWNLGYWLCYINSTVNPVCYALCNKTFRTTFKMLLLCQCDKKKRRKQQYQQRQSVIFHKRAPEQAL

[6] = target: Beta-2 adrenergic receptor (Homo sapiens, UniProt P07550); experiment: Inhibition of beta2 adrenergic receptor
Sequence of Beta-2 adrenergic receptor (P07550 whole entry): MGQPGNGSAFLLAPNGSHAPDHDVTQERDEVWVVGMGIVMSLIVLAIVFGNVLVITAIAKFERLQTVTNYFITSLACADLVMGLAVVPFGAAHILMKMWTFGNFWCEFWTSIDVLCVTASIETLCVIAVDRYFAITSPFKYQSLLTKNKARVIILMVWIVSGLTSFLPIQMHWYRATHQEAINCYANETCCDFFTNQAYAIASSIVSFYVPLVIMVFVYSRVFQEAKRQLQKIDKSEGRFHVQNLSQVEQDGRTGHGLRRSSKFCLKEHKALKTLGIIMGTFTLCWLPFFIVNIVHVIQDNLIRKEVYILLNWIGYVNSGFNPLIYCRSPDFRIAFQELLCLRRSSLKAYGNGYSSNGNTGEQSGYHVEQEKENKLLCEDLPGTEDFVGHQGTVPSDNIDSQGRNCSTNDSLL

[7] = target: 5-hydroxytryptamine receptor 2A (Canis lupus familiaris, UniProt O46635); experiment: Agonist activity at 5-HT2A receptor in dog bladder strip; format: functional
Sequence of 5-hydroxytryptamine receptor 2A (O46635 whole entry): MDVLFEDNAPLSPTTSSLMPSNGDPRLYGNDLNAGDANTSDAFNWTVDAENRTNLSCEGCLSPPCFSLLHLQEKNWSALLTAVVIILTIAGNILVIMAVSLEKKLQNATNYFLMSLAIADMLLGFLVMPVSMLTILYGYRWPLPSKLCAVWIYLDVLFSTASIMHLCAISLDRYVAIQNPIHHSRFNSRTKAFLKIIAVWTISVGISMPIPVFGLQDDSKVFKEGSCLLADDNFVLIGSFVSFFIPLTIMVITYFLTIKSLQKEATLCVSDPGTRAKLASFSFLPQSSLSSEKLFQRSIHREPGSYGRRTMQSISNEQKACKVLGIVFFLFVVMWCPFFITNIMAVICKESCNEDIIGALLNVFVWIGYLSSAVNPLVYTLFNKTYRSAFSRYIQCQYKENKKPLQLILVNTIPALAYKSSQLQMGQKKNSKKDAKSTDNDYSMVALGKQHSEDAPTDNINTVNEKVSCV

[8] = target: T4, 5-hydroxytryptamine receptor 3A (Homo sapiens, UniProt P46098); experiment: Inhibition of 5HT3 receptor
T4 sequence (P46098 whole entry): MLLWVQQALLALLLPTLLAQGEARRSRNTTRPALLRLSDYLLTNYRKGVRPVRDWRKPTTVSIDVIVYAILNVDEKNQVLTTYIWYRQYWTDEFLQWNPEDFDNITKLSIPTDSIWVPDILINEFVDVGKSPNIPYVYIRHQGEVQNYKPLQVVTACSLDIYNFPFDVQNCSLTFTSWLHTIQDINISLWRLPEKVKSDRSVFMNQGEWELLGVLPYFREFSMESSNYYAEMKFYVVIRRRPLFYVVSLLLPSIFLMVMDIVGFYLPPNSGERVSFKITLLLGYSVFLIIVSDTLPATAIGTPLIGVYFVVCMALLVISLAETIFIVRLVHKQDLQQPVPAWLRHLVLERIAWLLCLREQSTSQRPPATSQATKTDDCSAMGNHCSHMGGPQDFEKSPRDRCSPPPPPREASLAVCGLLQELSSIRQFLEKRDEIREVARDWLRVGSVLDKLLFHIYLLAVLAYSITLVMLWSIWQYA

Cytochrome P450 2C9 = Cytochrome P450 2C9 (Homo sapiens, UniProt P11712); experiment: Inhibition of CYP2C9; format: ADME
Sequence of Cytochrome P450 2C9 (P11712 whole entry): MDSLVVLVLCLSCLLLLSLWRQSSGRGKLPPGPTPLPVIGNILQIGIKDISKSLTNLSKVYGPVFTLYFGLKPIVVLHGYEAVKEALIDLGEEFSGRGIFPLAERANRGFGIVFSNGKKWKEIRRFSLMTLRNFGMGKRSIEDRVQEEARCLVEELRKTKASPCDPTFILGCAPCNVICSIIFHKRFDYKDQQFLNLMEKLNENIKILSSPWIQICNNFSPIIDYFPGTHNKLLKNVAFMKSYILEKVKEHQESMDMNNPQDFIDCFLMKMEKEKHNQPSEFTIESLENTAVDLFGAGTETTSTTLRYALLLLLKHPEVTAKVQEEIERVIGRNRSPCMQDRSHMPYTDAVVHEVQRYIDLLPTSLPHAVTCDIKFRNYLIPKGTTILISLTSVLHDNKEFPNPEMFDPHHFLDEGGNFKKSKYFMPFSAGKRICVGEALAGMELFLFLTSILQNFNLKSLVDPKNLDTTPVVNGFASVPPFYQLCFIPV

Canis familiaris = experiment: Increase of peak urethral pressure in dog model of stress incontinence at 150 ug/kg, iv after 60 mins; format: functional, Canis lupus familiaris, Urethra
[9] = Plasma concentration in dog model of stress incontinence at 150 ug/kg, iv after 60 mins; format: ADME, organism-based, Canis lupus familiaris; conditions: 0.15 mg/kg
Cytochrome P450 2D6 = Cytochrome P450 2D6 (Homo sapiens, UniProt P10635); experiment: Inhibition of CYP2D6; format: ADME
Sequence of Cytochrome P450 2D6 (P10635 whole entry): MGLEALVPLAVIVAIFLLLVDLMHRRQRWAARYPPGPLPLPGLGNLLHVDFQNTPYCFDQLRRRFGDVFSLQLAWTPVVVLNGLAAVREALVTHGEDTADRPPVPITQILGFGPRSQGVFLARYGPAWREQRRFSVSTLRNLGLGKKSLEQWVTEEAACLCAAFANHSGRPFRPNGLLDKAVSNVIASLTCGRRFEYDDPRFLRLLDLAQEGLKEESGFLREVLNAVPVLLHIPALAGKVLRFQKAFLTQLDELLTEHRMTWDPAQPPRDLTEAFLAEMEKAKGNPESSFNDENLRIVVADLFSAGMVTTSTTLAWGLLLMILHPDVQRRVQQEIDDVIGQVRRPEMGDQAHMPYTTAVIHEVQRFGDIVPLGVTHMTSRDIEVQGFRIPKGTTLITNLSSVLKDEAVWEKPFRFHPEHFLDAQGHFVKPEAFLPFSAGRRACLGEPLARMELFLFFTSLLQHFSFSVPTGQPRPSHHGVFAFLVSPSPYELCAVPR

[10] = target: 5-hydroxytryptamine receptor 2A (Canis lupus familiaris) (UniProt O46635); experiment: Agonist activity at 5-HT2A receptor in dog bladder strip relative to 5-HT; format: functional
Sequence of 5-hydroxytryptamine receptor 2A (Canis lupus familiaris) (O46635 whole entry): as the sequence (O46635 whole entry) above

Cytochrome P450 3A4 = Cytochrome P450 3A4 (Homo sapiens, UniProt P08684); experiment: Inhibition of CYP3A4; format: ADME
Sequence of Cytochrome P450 3A4 (P08684 whole entry): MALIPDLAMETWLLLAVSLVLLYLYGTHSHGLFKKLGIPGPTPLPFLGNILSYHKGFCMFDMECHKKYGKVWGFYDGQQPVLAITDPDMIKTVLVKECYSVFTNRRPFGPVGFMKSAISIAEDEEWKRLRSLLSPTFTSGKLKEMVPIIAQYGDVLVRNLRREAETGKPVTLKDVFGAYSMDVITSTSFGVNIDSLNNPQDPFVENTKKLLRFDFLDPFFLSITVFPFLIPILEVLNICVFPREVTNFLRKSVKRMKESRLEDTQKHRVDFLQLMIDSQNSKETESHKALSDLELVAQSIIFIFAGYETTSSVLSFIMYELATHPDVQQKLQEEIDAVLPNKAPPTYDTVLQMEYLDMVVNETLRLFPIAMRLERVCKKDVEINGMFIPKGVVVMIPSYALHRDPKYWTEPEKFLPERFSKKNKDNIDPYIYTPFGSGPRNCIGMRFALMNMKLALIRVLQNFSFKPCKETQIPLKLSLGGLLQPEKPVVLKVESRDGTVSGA

[11] = target: Voltage-gated inwardly rectifying potassium channel KCNH2 (Homo sapiens, UniProt Q12809); experiment: Displacement of dofrtilide from human ERG channel
Sequence of Voltage-gated inwardly rectifying potassium channel KCNH2 (Q12809 whole entry): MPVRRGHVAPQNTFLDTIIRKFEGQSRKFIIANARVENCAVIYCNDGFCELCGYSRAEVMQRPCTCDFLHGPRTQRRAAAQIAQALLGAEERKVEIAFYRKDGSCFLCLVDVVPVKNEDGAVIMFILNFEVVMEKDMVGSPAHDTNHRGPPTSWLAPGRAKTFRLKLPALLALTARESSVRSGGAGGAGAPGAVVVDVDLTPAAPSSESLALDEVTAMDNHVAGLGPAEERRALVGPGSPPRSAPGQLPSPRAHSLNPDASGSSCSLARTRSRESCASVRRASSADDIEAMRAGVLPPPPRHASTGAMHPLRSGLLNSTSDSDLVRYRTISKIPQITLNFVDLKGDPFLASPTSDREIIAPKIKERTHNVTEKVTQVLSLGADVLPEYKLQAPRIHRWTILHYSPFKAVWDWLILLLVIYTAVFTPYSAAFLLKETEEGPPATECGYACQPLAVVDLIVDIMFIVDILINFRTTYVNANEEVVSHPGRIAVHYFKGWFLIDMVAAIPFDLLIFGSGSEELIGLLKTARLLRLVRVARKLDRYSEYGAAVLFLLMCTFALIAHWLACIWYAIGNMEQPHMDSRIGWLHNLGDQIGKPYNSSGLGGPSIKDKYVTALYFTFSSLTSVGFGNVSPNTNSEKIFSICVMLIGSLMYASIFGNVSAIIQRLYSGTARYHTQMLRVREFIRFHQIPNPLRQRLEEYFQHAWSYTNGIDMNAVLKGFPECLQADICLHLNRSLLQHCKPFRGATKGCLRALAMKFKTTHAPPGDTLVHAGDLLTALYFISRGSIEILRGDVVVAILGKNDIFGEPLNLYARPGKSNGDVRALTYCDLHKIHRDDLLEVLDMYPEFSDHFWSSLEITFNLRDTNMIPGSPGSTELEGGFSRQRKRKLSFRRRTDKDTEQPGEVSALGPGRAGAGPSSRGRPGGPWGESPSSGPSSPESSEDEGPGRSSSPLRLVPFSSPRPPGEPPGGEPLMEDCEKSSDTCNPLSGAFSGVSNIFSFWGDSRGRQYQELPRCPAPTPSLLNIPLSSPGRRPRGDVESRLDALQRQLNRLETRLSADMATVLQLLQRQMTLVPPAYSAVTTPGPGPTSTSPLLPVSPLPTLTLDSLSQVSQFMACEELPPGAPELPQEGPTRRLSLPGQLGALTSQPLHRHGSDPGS

Cytochrome P450 1A2 = target: T5, Cytochrome P450 1A2 (Homo sapiens, UniProt P05177); experiment: Inhibition of CYP1A2; format: ADME
T5 sequence (P05177 whole entry): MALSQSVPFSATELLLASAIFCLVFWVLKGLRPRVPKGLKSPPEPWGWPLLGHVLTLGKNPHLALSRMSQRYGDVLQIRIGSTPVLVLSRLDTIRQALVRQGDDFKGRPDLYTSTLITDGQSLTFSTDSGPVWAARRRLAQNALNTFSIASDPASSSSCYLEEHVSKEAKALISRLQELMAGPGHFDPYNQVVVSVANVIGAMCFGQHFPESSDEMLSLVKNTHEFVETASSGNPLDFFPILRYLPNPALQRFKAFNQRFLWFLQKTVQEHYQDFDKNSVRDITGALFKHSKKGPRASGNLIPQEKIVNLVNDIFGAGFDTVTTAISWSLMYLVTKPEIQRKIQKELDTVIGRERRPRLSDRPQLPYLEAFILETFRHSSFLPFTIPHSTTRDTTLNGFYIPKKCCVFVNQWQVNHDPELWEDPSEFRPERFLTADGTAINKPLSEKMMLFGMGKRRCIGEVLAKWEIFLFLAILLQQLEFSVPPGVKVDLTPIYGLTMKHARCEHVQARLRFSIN

MDR1 = experiment: in vitro; conditions: dog, MDCK-MDR1
Description: Apparent membrane permeability across apical to basolateral side of MDR1 expressing MDCK cells

[12] = target: T1, 5-hydroxytryptamine receptor 2B; experiment: Agonist activity at human recombinant 5HT2B receptor assessed as induction of calcium mobilization at 10 uM by FLIPR assay relative to 5-HT; format: functional
Homo sapiens = species on record: Homo sapiens; experiment: Selectivity ratio of EC50 for human recombinant 5HT2B receptor to EC50 for human recombinant 5HT2A receptor
Liver microsomes = conditions: human
Description: as §1

T1 sequence (P41595 whole entry): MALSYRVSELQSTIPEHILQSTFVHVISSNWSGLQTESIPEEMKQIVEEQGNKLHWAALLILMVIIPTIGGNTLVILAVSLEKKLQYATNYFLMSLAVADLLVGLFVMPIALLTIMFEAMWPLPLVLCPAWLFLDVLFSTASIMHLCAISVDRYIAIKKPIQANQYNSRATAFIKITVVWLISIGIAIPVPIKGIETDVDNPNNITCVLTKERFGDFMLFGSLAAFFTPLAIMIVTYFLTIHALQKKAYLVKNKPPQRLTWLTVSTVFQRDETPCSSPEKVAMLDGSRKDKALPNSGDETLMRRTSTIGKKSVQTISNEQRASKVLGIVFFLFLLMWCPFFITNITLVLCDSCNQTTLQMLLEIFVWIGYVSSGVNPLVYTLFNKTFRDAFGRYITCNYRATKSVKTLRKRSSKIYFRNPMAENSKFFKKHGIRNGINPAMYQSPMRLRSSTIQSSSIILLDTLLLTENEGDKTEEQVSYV

Structure (SMILES) | logD (physchem) | Emax [1] [%] | Emax [2] [%] | microsomal CLint (in vitro) [µL/min/mg] | EC50 [3] [nM] | EC50 [4] [nM] | Papp A→B (MDR1) [×10⁻⁶ cm/s] | also measured
O=c1cc2c(nn1Cc1ccc(C(F)(F)F)cc1)CCNCC2 | 1.1 | 59 | 47 | 10 | 125 | 473 |  | 
Cc1nc2c3c(nc(Cc4ccccc4)n2n1)CCNCC3 |  |  |  |  |  |  |  | Ki [5]: 8200 nM; Ki [6]: 7600 nM; EC50 [7]: 1800 nM; Ki [8]: 3700 nM; inhibition (INH) (Cytochrome P450 2C9): < 10%; Efficacy (Canis familiaris): 20%; concentration at 1 h [9]: 89 nM; inhibition (INH) (Cytochrome P450 2D6): < 10%; Emax [10]: 40%; inhibition (INH) (Cytochrome P450 3A4): < 10%; Ki [11]: > 22000 nM; inhibition (INH) (Cytochrome P450 1A2): < 10%
O=c1[nH]n(Cc2ccccc2)c2c1CCNCC2 | -0.1 |  | 68 | < 7 | > 10000 | > 10000 |  | 
c1ccc(COc2n[nH]c3c2CCNCC3)cc1 | 0.5 | 56 |  | < 7 | 176 | 353 | 24 | 
Cn1nc2c(cc1=O)CCNCC2 |  |  | 52 |  | 338 |  |  | Emax [12]: 32%
O=c1cc2c(nn1Cc1ccccc1OC(F)(F)F)CCNCC2 | 1.2 | 86 | 57 | < 7 | 107 | 142 |  | 
Cc1nnc2c3c(nc(Cc4ccccc4)n12)CCNCC3 |  |  |  |  |  |  |  | EC50 [7]: 1600 nM; Emax [10]: 36%
CC(C)CCn1nc2c(cc1=O)CCNCC2 | 0.6 |  | 77 | < 7 | 62 |  |  | Emax [12]: 65%
O=c1cc2c(nn1Cc1ccccc1Cl)CCNCC2 | 0.9 | 67 | 56 | < 7 | 33 | 94 |  | 
O=c1cc2c(nn1Cc1ccc(Cl)cc1)CCNCC2 | 1.1 | 73 | 40 | < 7 | 31 | 267 |  | 
O=c1cc2c(nn1-c1ccccc1)CCNCC2 | -0.3 |  |  |  | > 10000 | > 10000 |  | 
O=c1cc2c(nn1Cc1cccc(Cl)c1)CCNCC2 | 1.1 | 73 | 70 | < 7 | 30 | 81 | 32 | 
O=c1cc2c(nn1Cc1ccc(C3CC3)cc1)CCNCC2 | 1.4 | 34 | 51 | < 7 | 26 | 84 |  | 
O=c1cc2c(nn1Cc1ccccc1)CCNCC2 | 0.3 | 48 | 79 | < 7 | 31 | 358 | 25 | Ratio EC50 (Homo sapiens): 10
N#Cc1ccc(Cn2nc3c(cc2=O)CCNCC3)cc1 | -0.1 |  | 51 | < 7 | 6630 |  | 11 | Emax [12]: 42%
O=c1c2c([nH]n1Cc1ccccc1)CCNCC2 | -0.5 |  | 57 |  | > 10000 | > 10000 | 2 | CL (Liver microsomes): 13 µL/min/mg
c1ccc(Cn2cc3c(n2)CCNCC3)cc1 | 0.1 |  | 65 | < 7 | 4980 | > 10000 | 27 | 
O=c1cc2c(nn1CCOc1ccccc1)CCNCC2 | 0.4 |  |  | < 7 | > 10000 | > 10000 |  | 
Cn1c2c(c(=O)n1Cc1ccccc1)CCNCC2 | 0 |  |  | < 7 | 2930 | > 10000 | 13 | 
O=c1cc2c(nn1Cc1ccc(OC(F)(F)F)cc1)CCNCC2 | 1.5 | 58 | 66 | < 7 | 48 | > 10000 |  | 
Clc1cccc(N2CCNCC2)c1 |  | 35 | 71 |  |  |  |  | 
